From BindingDB's records for doi:10.1021/jm00107a015 (Institute of Cancer Research, 1991)

Assay: Growth inhibition of thymidylate synthase(TS) in L1210 cells

SMILES | IC50 [nM]
C#CCN(Cc1ccc2nc[nH]c(=S)c2c1)c1ccc(C(=O)NC(CCC(=O)O)C(=O)O)cc1 (stereo not drawn) | 110
CCN(Cc1ccc2nc[nH]c(=S)c2c1)c1ccc(C(=O)NC(CCC(=O)O)C(=O)O)cc1 (stereo not drawn) | 260
CCN(Cc1ccc2ncnc(SC)c2c1)c1ccc(C(=O)NC(CCC(=O)O)C(=O)O)cc1 (stereo not drawn) | 117000
